Key:
[1] = cited from earlier work
[2] = system: cytochrome P450 CYP3A4; details: cited from earlier work
[3] = parameters: method as in PMID 32943547; details: combination with sapanisertib, p <0.001; cited from earlier work
[4] = system: laboratory beagle dogs; assay: Repeat dose tolerability: clinical observations, hematology, serum chemistry, coagulation, urinalysis; assay type: in vivo
Procedure: (§1) Laboratory Beagle dogs (Charles River Labs, Mattawan, MI) served as surrogates in testing compounds proposed for application in canine clinical cancer care. The animals were at least six months old and weighed 6.4–8.8 kg at the initiation of study. They had routine veterinary care and had not been used in any previous studies. The study was conducted in AAALAC-accredited animal facilities [Charles River Laboratories, Inc., Mattawan, MI; NIH Office of Laboratory Animal Welfare Assurance approval (https://olaw.nih.gov/assured/app/index.html)], under review, monitoring, and approval of the facility's Institutional Animal Care and Use Committee according to U.S. Public Health Service national guidelines and regulations for the care and use of laboratory animals. The study was not designed to incorporate Good Laboratory Practices (GLP) regulatory criteria. Animals on study were monitored daily or more frequently and body weights were recorded, while periodic specimens were obtained for laboratory analyses. Clinical pathology analyses were included for hematology, serum chemistry, coagulation, urinalysis, and chemical bioanalysis was accomplished for pharmacokinetics (PK) (Table 1, repeat dose study) (Charles River Laboratories, Mattawan, MI).
(§2) Six male and six female beagle dogs were enrolled in a parallel, three-arm, fixed, repeat oral-dose study. […] All dogs were dosed on study day 1 to obtain single dose PK samples, and then dosed serially days 4–20. Dogs were fasted overnight prior to dosing and fed ad libitum 2 h (hrs) following dose administration.
On days 10 and 15, a 2-h post-dose sample was collected. […] Treatment schedule and clinical pathology specimen sampling intervals are outlined in Table 1. […]
Sampling for hematology, serum chemistry, coagulation and urinalysis was conducted to facilitate monitoring treatment effects over various time points, and values obtained were compared to pre-treatment measurements for each subject (Table 1).

[5] = Plasma pharmacokinetics after single and repeat oral dose, LC-MS/MS, non-compartmental analysis; assay type: in vivo, Beagle dogs; details: for Tmax: TMAX (trametinib in plasma), median (range)
Procedure: as §1
as §2, with “study. […] In Group 2, two male (23001, 23002) and two female (23501, 23502) dogs were given sapanisertib alone (0.1 mg/kg) every other day (p.o., QOD).” for “study.”
Plasma samples for PK were collected at pre-dose (-7 days), then beginning day 1 following the initial dose of each study group at 1, 2, 4, 8, 24, 48, and 72 h. On day 6, plasma samples were collected pre-dose, then 1, 2, 4, 8, and 24 h post-dose. On days 10 and 15, a 2-h post-dose sample was collected. On day 20, plasma samples were drawn at pre-dose and 1, 2, 4, 8, 24, 48, and 72 h post-dose. Treatment schedule and clinical pathology specimen sampling intervals are outlined in Table 1.
(§3) Each 50 μL aliquot of known concentration standards, quality control sample, or study sample was mixed with 200 μL of working internal standard solution (10 ng/mL in acetonitrile). The samples were vortexed and centrifuged. A 150 μL aliquot of the resulting supernatant was transferred to a clean 96-well plate, evaporated, and reconstituted with 100 μL of water/acetonitrile (40/60, v/v). An aliquot was injected onto an LC-MS/MS XBridge BEH C18 liquid chromatography system (Waters Associates, Framingham, MA) having 50 x 2.1 mm (2.5 μm particle size) column with an isocratic flow consisting of water/formic acid (100/0.1, v/v) and acetonitrile/formic acid (100/0.1, v/v) at a flow rate of 0.3000 mL/min for analysis. The analyte and internal standard were detected using an API 6500+ triple quadrupole LC-MS/MS system (AB Sciex, LLC, Framingham, MA) equipped with an ESI (TurboIonSpray®) ionization source operated in the positive ion mode.
A non-compartmental approach to PK analysis was employed using Phoenix WinNonlin v8.3 (Certara Corp, Cary, NC) that was validated per FDA 21CFR Part 11 regulations. The maximum plasma concentration (CMAX) and the time of maximum plasma concentration (TMAX) were recorded as observed values. […] AUCINF (the AUC from time zero to infinity) was calculated by extrapolation by dividing CLAST (the last measurable drug concentration) by the rate constant of the terminal phase, λZ. This constant was determined from the slope of the terminal phase of the concentration-time curve using uniformly-weighted least-squares as the estimation procedure and acceptance criteria of (i) adjusted r^2 > 0.8, (ii) includes > 3 time points in the terminal phase occurring after the TMAX. […]

[6] = Pilot single oral dose plasma trametinib concentrations (initial formulation); assay type: in vivo; details: fasted dogs
Procedure: as §3
These analytical findings, even under animal fasting conditions, were independently verified at the NCI Clinical Pharmacology Program. […] Consequently, trametinib was reformulated for this study by […] with equimolar dimethyl sulfoxide (DMSO) (Wedgewood Pharmacy, Swedesboro, NJ), consistent with the human formulation ([…]®, Novartis), and used for all subsequent evaluations. […]

[7] = ref MEKINIST Prescribing Information

CC(=O)Nc1cccc(-n2c(=O)n(C3CC3)c(=O)c3c(Nc4ccc(I)cc4F)n(C)c(=O)c(C)c32)c1 [Trametinib, trametinib dimethyl sulfoxide]
Trametinib accumulation upon repeat daily dosing in humans [1]: up to six-fold | Clearance of trametinib in humans [1, 7]: 0.07 L/h/kg | Distribution volume of trametinib in humans [1, 7]: 3.1 L/kg | Induction of cytochrome P450 CYP3A4 [2]: known inducer | Trametinib AUC in mice during combination treatment [3]: significantly increased | Dogs with minimal to marked increases in urine protein concentration ([4]; Day 25, greater than pre-study values, 4 dogs per group): one male dog | Urine protein concentration, highest value (up to) ([4]; Day 25, semi-quantitatively by urine dipstick): ≥ 1,000 mg/dL | Globulin concentration, times pre-study (up to) ([4]; Days 7, 20, and/or 25): up to 1.45 x | Serum phosphorus concentrations, times pre-study (as low as) ([4]; Days 7 and 20, both sexes in all groups): ≥ 0.74 x | Individual animal fibrinogen concentration, times pretreatment (up to) ([4]; various time points, most pronounced in Group 3): up to 2.61 x | CMAX or AUC, male versus female dogs ([5]; Mann-Whitney, p > 0.05): absence of significant differences | Cmax ([5]; both, beagle, dog, plasma, po, […], CMAX (trametinib in plasma), First dose (Day 1), trametinib […] p.o., alone or with sapanisertib 0.1 mg/kg (see label), arithmetic mean (%CV), n = 4): 0.64 ng/mL | half-life ([5]; both, beagle, dog, plasma, po, […], T1/2 (trametinib in plasma), Steady-state (Day 20), trametinib […] p.o. q.d., mean (%CV), one subject of the trametinib-alone group excluded): 2.45 days | Tmax ([5]; both, beagle, dog, plasma, po, […], First dose (Day 1), trametinib […] p.o., n = 4): 1.5 h | Tmax ([5]; both, beagle, dog, plasma, po, […], Steady-state (Day 20), trametinib […] p.o. q.d., n = 4): 2 h

CC(=O)Nc1cccc(-n2c(=O)n(C3CC3)c(=O)c3c(Nc4ccc(I)cc4F)n(C)c(=O)c(C)c32)c1 [trametinib, as initially formulated, trametinib]
Plasma trametinib concentration after single oral dose ([6]; 0.06 or 0.03 mg/kg, inconsistent, frequently below assay detection limit, for each dose one of two dogs below detection): < 0.1 ng/mL | Time to detection of trametinib in plasma post dose ([6]; single oral dose 0.06 or 0.03 mg/kg): ≥ 24 h
